Measurements: PMC10649961, “Novel Mitochondria-Targeted Amphiphilic Aminophosphonium Salts and Lipids Nanoparticles: Synthesis, Antitumor Activity and Toxicity” (Nanomaterials, 2023)

Assays:
PC3 = experiment: cells; conditions: Homo sapiens, PC-3, 48 h, read-out: Cytotoxic Effects (IC50), PC3, MTT assay, 48 h
HuTu 80 cells = experiment: Cell apoptosis assay, Annexin V/propidium iodide flow cytometry; format: cell-based, human; conditions: HuTu 80, 48-h incubation, IC50/2 and IC50
Experimental: HuTu 80 cells at a rate of 1 × 10^6 cells/well were seeded into six-well plates and incubated until a monolayer formed for approximately 24 h. After […] of incubation, various concentrations of compounds 4b, 5b, 6a, and 8 were added to the wells.
Cells were detached with a trypsin-versene solution (1:3), suspended in PBS, and collected at 2000 rpm for 5 min. Cells were then washed twice with ice-cold PBS, followed by resuspension in binding buffer. Next, the samples were incubated with 5 μL of Annexin V Alexa Fluor 647 (Sigma-Aldrich, St. Louis, MO, USA) and 5 μL of propidium iodide for 15 min at room temperature in the dark. Finally, the cells were analyzed by flow cytometry in the Red-R (661/15 nm)—annexin and Near IR-B (785/70 nm)—PI channels on a Guava easyCyte flow cytometer (Merck Millipore, Burlington, MA, USA) for 1 h. The experiments were repeated three times.

caspase 8 = experiment: Caspase 8 ELISA in cell lysates; format: cell-based, human; conditions: HuTu 80 lysates, relative to the control
Experimental: In vitro quantitative measurement of caspase-9 and caspase-8 was performed using ELISA kits (ELISA Kit for Caspase 9 and ELISA Kit for Caspase 8, Human Cloud-Clone Corp., Wuhan, China). The analysis was carried out according to the manufacturer’s instructions. Samples were standardized for total protein content (1 mg/mL). Protein concentration was determined with Coomassie-based assays using Bredford Dye Reagent (Bio-Rad, Hercules, CA, USA). The absorbance was measured using a microplate reader, EPOCH (BioTek Instruments, Inc., Winooski, VT, USA), at a wavelength of 450 ± 10 nm. Lysates of untreated HuTu 80 cells were used as controls.
To confirm that apoptosis induced by compounds 4b, 5b, 6a, and 8 proceeds along the internal (mitochondrial) pathway, studies were conducted to determine the enzymatic activity of the early apoptosis key markers—caspase 9 and caspase 8 using ELISA kits. The kits are sandwich enzyme immunoassays for in vitro quantitative measurement of Caspase 8 and Caspase 9 in cell lysates, rat tissue homogenates, and other biological fluids. Caspase 9 plays a key role in the mitochondrial signaling pathway of apoptosis induction. The activation of caspase 8 characterizes the external (receptor-dependent) pathway of apoptosis. HuTu 80 cells not treated with the tested compounds were used as a control.

Structure (SMILES) | IC50 (PC3) | apoptosis-inducing effect (in words) (HuTu 80 cells) | concentration of caspase 8 (in words) (caspase 8)
CCCCCCCC[P+](c1ccccc1)(c1ccccc1)c1ccccc1 [compound 8, Octyltriphenylphosphonium iodide, reference compound] | 0.4 ± 0.03 µM | more active in the early stage of apoptosis | 
CCCCCCCC[P+](N(CC)CC)(N(CC)CC)N(CC)CC [4b, Tris(diethylamino)(octyl)phosphonium iodide] | 11.6 ± 0.9 µM | dose-dependent apoptosis | significantly decreased
CCCCCC[P+](c1ccccc1)(c1ccccc1)N(CC)CC [6a, (Diethylamino)(hexyl)diphenylphosphonium iodide] | 4 ± 0.3 µM | number of necrotic cells prevailed | 
CCCCCCCC[P+](c1ccccc1)(N(CC)CC)N(CC)CC [5b, Bis(diethylamino)(octyl)(phenyl)phosphonium iodide] | 11.4 ± 0.9 µM | dose-dependent apoptosis | significantly decreased
CCCCCCCCCC[P+](N(CC)CC)(N(CC)CC)N(CC)CC [4d, Decyltris(diethylamino)phosphonium iodide] | 7.3 ± 0.6 µM |  | 
